We go through 20 molecules from patent EP0364581A1, “METHOD OF STERILIZING PLANT POLLEN” (VSESOJUZNY NAUCHNO-ISSLEDOVATELSKY INST. SELSKOKHOZYAISTV. …, priority 1988, dated 1989).

Assay in all cases: field test of gametocidal activity (sterilisation of anthers)
Test [1] relates to Winterweizens Sorte Polesskaya-70. The class given is in vivo, Winterweizen. The note with it: V. Periode, 2%ige wäßrige Emulsion, 16 kg/ha; for Prozentsatz des Ansetzens bei freier Bestäubung: control = 100. The source says: (§1) Die gametozide Aktivität der erfindungsgemäßen Sterilisationsmittel war in Feldversuch in verschiedenen bodenklimatischen Zonen mit Teilstücken von 10 m^2 Größe in drei-- bis viermaliger Wiederholung nachgewiesen. Jedes Sterilisationsmittel wurde mindestens 5 Jahre lang geprüft.
(§2) Die Entwicklung der Perioden der Organogenese wird zytologisch überwacht. Die Behandlung von Pflanzen mit dem Sterilisationsmittel erfolgt am Anfang der fünften Periode der Organogenese nach Kupermann.
(§3) Mit dem Ahrenschieben verwirklicht man die Isolierung von Hauptähren und anderen Stockwerken in Pergamentbeuteln. Bei Weizen und Tritikale werden Einzelisolatoren verwendet. Bei Roggen schließt man je 1 Ähre von 5 bis 7 verschiedenen nebeneinander befindlichen Pflanzen in einen gemeinsamen Isolator ein. Bei Hirse wird jede Rispe getrennt isoliert. Der Sterilitätsprozentsatz (X) für Weizen, Roggen, Tritikale und Hirse wird nach der Formel [formula]
(§4) Samen von unbehandelten Kontrollpflanzen ermittelt.
(§5) Die Kornzahl in nicht isolierten Ähren von Kontrollpflanzen wird bedingt für 100% Ansetzen bei freier Bestäubung angenommen.
(§6) Um zuverlässige Angaben zu erhalten, verwendet man 20 bis 25 Isolatoren jeder Wiederholung für Weizen und Tritikale, 10 bis 15 Isolatoren jeder Wiederholung für Roggen und Hirse.
Pflanzen des Winterweizens Sorte Polesskaya-70 behandelt man in der V. Periode der Organogenese durch Zerstäubund einer 2%igen wäßrigen Emulsion von Phthalsäurediäthylester, Phthalsäurediallylester, Phthalsäuredihexylester, Kaliumsalz der 2-Methyl-3-zyklohexenkarbonsäure, Ammoniumsalz der 2-Methyl-3-zyklohexenkarbonsäure mit Hilfe einer Rückenspritze. Die Emulsion enthält 0,01 Masse% Tetrahydrofuran und 0,1 Masse% C12 -C14 -Kalziumalkylbenzolsulfonat.
Der Verbrauch an Präparat beträgt 16 kg/ha. Als Kontrolle dienen Pflanzen, behandelt mit dem Verdünner ohne Sterilisationsmittel.

The subject of test [2] is Winterweizens Sorte Priboi. Type of test: in vivo, Winterweizen. Particulars: V. und VI. Periode, 2%ige wäßrige Emulsion, 12 kg/ha; for Prozentsatz des Ansetzens der Körner bei freier Bestäubung: control = 100.
Source text: as §1, §2, §3, §4, §5, §6
Pflanzen des Winterweizens Sorte Priboi werden in der V. und VI. Periode der Organogenese (nach Kupermann) mit einer 2%igen wäßrigen Emulsion von Kaliumsalz der 2-Methyl--3-zyklohexenkarbonsäure, 2-Methyl-3-zyklohexenkarbonsäure- methylester, Pnthalsäuredipropylester, Phthalsäurediisobutylester behandelt. Die Emulsion enthält 0,01 Masse% Dimethylsulfoxid und 0,1 Masse% C12-C14 -Kalziumalkylbenzolsulfonat. Der Verbrauch an Präparat beträgt 12 kg/ha. Als Kontrolle dienen Pflanzen, behandelt mit einem Verdünner ohne Sterilisationsmittel.

Test [3] relates to Winterweizens Sorte Kharkovskaya 81. The class given is in vivo, Winterweizen. The note with it: V. und VI. Periode, 2%ige wäßrige Emulsion, 12 kg/ha; for Prozentsatz des Ansetzens der Körner bei freier Bestäubung: control = 100.
Source text: as §1, §2, §3, §4, §5, §6
Pflanzen des Winterweizens Sorte Kharkovskaya 81 werden in der V. und VI. Periode der Organogenese (nach Kupermann) mit einer 2%igen wäßrigen Emulsion von Natriumsalz der 2-Methyl-3-zyklohexenkarbonsäure, Phthalsäuredihexylester, Ammoniumsalz der 2-Methyl-3-zyklohexenkarbon- säure, Phthalsäuredibutylester, Phthalsäurediallylester behandelt. Die Emulsion enthält 0,01 Masse% Dodezylsulfat und 0,1 Masse% C12-C14 -Kalziumalkylbenzolsulfonat. Der Verbrauch an Präparat beträgt 12 kg/ha.
Die Prüfergebnisse sind in der Tabelle 4 angeführt. Als Kontrolle dienten Pflanzen, behandelt ähnlich wie in Beispiel 1.

For test [4], the system named is Tritikale Sorte Amfidiploid 206. The class given is in vivo. The note with it: V. Periode, 1%ige wäßrige Emulsion, 6 kg/ha; for Prozentsatz des Ansetzens bei freier Bestäubung: control = 100.
Source text: as §1, §2, §3, §4, §5, §6
Pflanzen Tritikale Sorte Amfidiploid 206 werden in der V.Periode der Organogenese (nach Kupermann) mit einer l%igen wäßrigen Emulsion von Phthalsäuredipropylester, Phthalsäurediisobutylester, Kaliumsalz der 2-Methyl-3-zyklohexenkarbon- säure, 2-Methyl-3-zyklohexenkarbonsäuremethylester, Ammoniumsalz der 2-Methyl-3-zyklohexenkarbonsäure behandelt. Die Emulsion enthält 0,01 Masse% Tetrahydrofuran und 0,1 Masse% C12-C14-Kalziumalkylbenzolsulfonat. Der Verbrauch an Präparat beträgt 6 kg/ha. Als Kontrolle dienen Pflanzen, behandelt mit einem Verdünner ohne Sterilisationsmittel.

Test [5] relates to Hirse Sorte K-9693 Kormovoe I. Type of test: in vivo. The note with it: V. Periode, 1%ige wäßrige Emulsion, 8 kg/ha.
Source text: as §1, §2, §3, §4, §5, §6
Pflanzen der Hirse Sorte K-9693 Kormovoe I werden in der V. Periode der Organogenese (nach Kupermann) mit einer 1%igen wäßrigen Emulsion von Ammoniumsalz der 2-Methyl-3-zyklo- nexenkarbonsäure, Phthalsäuredipropylester, Phthalsäuredibutylester, Phthalsäurediisobutylester, 2-Methyl-3-zyklo- hexenkarbonsäuremethylester, Phthalsäuredihexylester behandelt. Die Emulsion enthält 0,01 Masse% Dodezylsulfat und 0,1 Masse% C12-C14-Kalziumalkylbenzolsulfonat. Der Verbrauch an Präparat beträgt 8 kg/ha. Als Kontrolle dienen Pflanzen, behandelt mit einem Verdünner ohne Sterilisationsmittel. Die Prüfergebnisse sind in der Tabelle 18 angeführt. […] Periode der Organogenese erhalten.

Regarding `CCOC(=O)c1ccccc1C(=O)OCC` [Beispiel 9, Phthalsäurediäthylester], in test [1], the “Kornzahl der Ähre bei freier Bestäubung” value was 36,8, the “Kornzahl der Ähre im Isolator” value was 0,2, the “Prozentsatz der Sterilität” value is reported as 99,4% and the “Prozentsatz des Ansetzens bei freier Bestäubung” value is listed as 97,4%.

For the molecule `C=CCOC(=O)c1ccccc1C(=O)OCC=C` [Beispiel 10, Phthalsäurediallylester], in test [1], the “Kornzahl der Ähre bei freier Bestäubung” value was 35,6, the “Kornzahl der Ähre im Isolator” value is on record as 6,2, the “Prozentsatz der Sterilität” value is given as 82,0% and the “Prozentsatz des Ansetzens bei freier Bestäubung” value is given as 94,1%.

Consider `CCCCCCOC(=O)c1ccccc1C(=O)OCCCCCC` [Beispiel 11, Phthalsäuredihexylester], for which, in test [1], the “Kornzahl der Ähre bei freier Bestäubung” value is 36,0, the “Kornzahl der Ähre im Isolator” value is recorded as 0,1, the “Prozentsatz der Sterilität” value is given as 99,7% and the “Prozentsatz des Ansetzens bei freier Bestäubung” value is on record as 95,2%.

For the molecule `CC1C=CCCC1C(=O)[O-].[K+]` (centres unmarked) [Beispiel 12, Kaliumsalz der 2-Methyl-3-zyklohexenkarbonsäure], in test [1], the “Kornzahl der Ähre bei freier Bestäubung” value is recorded as 35,8, the “Kornzahl der Ähre im Isolator” value is 0,0, the “Prozentsatz der Sterilität” value is reported as 100,0% and the “Prozentsatz des Ansetzens bei freier Bestäubung” value is reported as 94,7%.

In the case of `CC1C=CCCC1C(=O)O.N` (centres unmarked) [Beispiel 13, Ammoniumsalz der 2-Methyl-3-zyklohexenkarbonsäure], in test [1], the “Kornzahl der Ähre bei freier Bestäubung” value was 36,9, the “Kornzahl der Ähre im Isolator” value is on record as 3,7, the “Prozentsatz der Sterilität” value is 89,2% and the “Prozentsatz des Ansetzens bei freier Bestäubung” value is given as 97,6%.

For the molecule `CC1C=CCCC1C(=O)[O-].[K+]` (centres unmarked) [Beispiel 14, Kaliumsalz der 2-Methyl--3-zyklohexenkarbonsäure], in test [2], the “Kornzahl der Ähre bei freier Bestäubung” value was 35,1, the “Kornzahl der Ähre im Isolator” value is on record as 0,0, the “Prozentsatz der Sterilität” value is on record as 100,0% and the “Prozentsatz des Ansetzens der Körner bei freier Bestäubung” value is 95,4%.

Consider `COC(=O)C1CCC=CC1C` (centres unmarked) [Beispiel 15, 2-Methyl-3-zyklohexenkarbonsäure-methylester], for which, in test [2], the “Kornzahl der Ähre bei freier Bestäubung” value was 34,8, the “Kornzahl der Ähre im Isolator” value is 0,0, the “Prozentsatz der Sterilität” value is 100,0% and the “Prozentsatz des Ansetzens der Körner bei freier Bestäubung” value is listed as 94,6%.

`CCCOC(=O)c1ccccc1C(=O)OCCC` [Beispiel 16, Pnthalsäuredipropylester]: in test [2], the “Kornzahl der Ähre bei freier Bestäubung” value was 32,6, the “Kornzahl der Ähre im Isolator” value is reported as 5,6, the “Prozentsatz der Sterilität” value was 82,6% and the “Prozentsatz des Ansetzens der Körner bei freier Bestäubung” value was 88,6%.

Turning to `CC(C)COC(=O)c1ccccc1C(=O)OCC(C)C` [Beispiel 17, Phthalsäurediisobutylester], in test [2], the “Kornzahl der Ähre bei freier Bestäubung” value is recorded as 33,7, the “Kornzahl der Ähre im Isolator” value is listed as 0,0, the “Prozentsatz der Sterilität” value was 100,0% and the “Prozentsatz des Ansetzens der Körner bei freier Bestäubung” value was 91,6%.

Take `CC1C=CCCC1C(=O)[O-].[Na+]` (centres unmarked) [Beispiel 18, Natriumsalz der 2-Methyl-3-zyklohexenkarbonsäure]: in test [3], the “Kornzahl der Ähre bei freier Bestäubung” value was 32,6, the “Kornzahl der Ähre im Isolator” value was 0,2, the “Prozentsatz der Sterilität” value is 99,4% and the “Prozentsatz des Ansetzens der Körner bei freier Bestäubung” value was 96,2%.

Take `CCCCCCOC(=O)c1ccccc1C(=O)OCCCCCC` [Beispiel 19, Phthalsäuredihexylester]: in test [3], the “Kornzahl der Ähre bei freier Bestäubung” value is on record as 30,8, the “Kornzahl der Ähre im Isolator” value was 0,0, the “Prozentsatz der Sterilität” value is 100,0% and the “Prozentsatz des Ansetzens der Körner bei freier Bestäubung” value is reported as 90,8%.

Consider `CC1C=CCCC1C(=O)O.N` (centres unmarked) [Beispiel 20, Ammoniumsalz der 2-Methyl-3-zyklohexenkarbon-säure], for which, in test [3], the “Kornzahl der Ähre bei freier Bestäubung” value is given as 31,7, the “Kornzahl der Ähre im Isolator” value is 0,0, the “Prozentsatz der Sterilität” value is reported as 100,0% and the “Prozentsatz des Ansetzens der Körner bei freier Bestäubung” value was 93,5%.

For `CCCCOC(=O)c1ccccc1C(=O)OCCCC` [Beispiel 21, Phthalsäuredibutylester], in test [3], the “Kornzahl der Ähre bei freier Bestäubung” value is on record as 28,6, the “Kornzahl der Ähre im Isolator” value was 0,0, the “Prozentsatz der Sterilität” value was 100,0% and the “Prozentsatz des Ansetzens der Körner bei freier Bestäubung” value was 84,4%.

Take `C=CCOC(=O)c1ccccc1C(=O)OCC=C` [Beispiel 22, Phthalsäurediallylester]: in test [3], the “Kornzahl der Ähre bei freier Bestäubung” value is 30,6, the “Kornzahl der Ähre im Isolator” value is listed as 3,1, the “Prozentsatz der Sterilität” value is recorded as 90,3% and the “Prozentsatz des Ansetzens der Körner bei freier Bestäubung” value was 90,3%.

Turning to `CCCOC(=O)c1ccccc1C(=O)OCCC` [Beispiel 43, Phthalsäuredipropylester], in test [4], the “Kornzahl der Ähre bei freier Bestäubung” value is reported as 31,8, the “Kornzahl der Ähre im Isolator” value is 0,0, the “Prozentsatz der Sterilität” value is listed as 100,0% and the “Prozentsatz des Ansetzens bei freier Bestäubung” value was 87,3%.

Consider `CC(C)COC(=O)c1ccccc1C(=O)OCC(C)C` [Beispiel 44, Phthalsäurediisobutylester], for which, in test [4], the “Kornzahl der Ähre bei freier Bestäubung” value is reported as 32,5, the “Kornzahl der Ähre im Isolator” value is reported as 0,0, the “Prozentsatz der Sterilität” value is reported as 100,0% and the “Prozentsatz des Ansetzens bei freier Bestäubung” value is 89,3%.

Turning to `CC1C=CCCC1C(=O)O` (centres unmarked) [Beispiel 45, Kaliumsalz der 2-Methyl-3-zyklohexenkarbon-säure], in test [4], the “Kornzahl der Ähre bei freier Bestäubung” value is listed as 31,8, the “Kornzahl der Ähre im Isolator” value was 0,1, the “Prozentsatz der Sterilität” value is 99,7% and the “Prozentsatz des Ansetzens bei freier Bestäubung” value is 87,3%.

As to `COC(=O)C1CCC=CC1C` (centres unmarked) [Beispiel 46, 2-Methyl-3-zyklohexenkarbonsäuremethylester], in test [4], the “Kornzahl der Ähre bei freier Bestäubung” value is on record as 32,6, the “Kornzahl der Ähre im Isolator” value is reported as 0,0, the “Prozentsatz der Sterilität” value was 100,0% and the “Prozentsatz des Ansetzens bei freier Bestäubung” value is recorded as 89,6%.

For `CC1C=CCCC1C(=O)O` (centres unmarked) [Beispiel 47, Ammoniumsalz der 2-Methyl-3-zyklohexenkarbonsäure], in test [4], the “Kornzahl der Ähre bei freier Bestäubung” value is given as 37,5, the “Kornzahl der Ähre im Isolator” value is listed as 6,8, the “Prozentsatz der Sterilität” value is given as 79,7% and the “Prozentsatz des Ansetzens bei freier Bestäubung” value is 103,1%.

With `CCCCCCOC(=O)c1ccccc1C(=O)OCCCCCC` [Beispiel 102, Phthalsäuredihexylester], in test [5], the “Kornzahl der Rispe bei freier Bestäubung” value was 136,6, the “Kornzahl der Rispe im Isolator” value was 0,0 and the “Prozentsatz der Sterilität” value is on record as 100,0%. In addition, in test [5] (control = 100), the “Prozentsatz des Ansetzens der Körner bei freier Bestäubung” value was 93,1%.
